Laboratory results reported in US11629171B2, “Beta-hairpin peptidomimetics” (POLYPHOR AG, priority 2017, dated 2023).
Values after ≈ are worked out from the molar mass of the structure shown. Where a SMILES comes first, the peptide text is derived from it. Bridges are numbered along the chain shown (N, C = ends). Roman numbers before positions name the chains, in order. [ ]: non-standard residue; d: D form. The star is where a group is joined. Tle = CC(C)(C)[C@H](N)C(=O)O; Hiv = CC(C)[C@H](O)C(=O)O; dDab = NCC[C@@H](N)C(=O)O; hSer = N[C@@H](CCO)C(=O)O; NHCH(CH2OH)2 = OCC(CO)N*; Orn = NCCC[C@H](N)C(=O)O; Dab = NCC[C@H](N)C(=O)O; Dap = NC[C@H](N)C(=O)O

Columns and labels:
Assay type in all cases: cell-based
[1] = test system: Escherichia coli ATCC 25922; settings: ATCC 25922
Method: (§1) The in vitro antimicrobial activities of the peptides were determined in 96-well plates (Greiner, polystyrene) by the standard CLSI broth microdilution method (Clinical and Laboratory Standards Institute 2014. Performance standards for antimicrobial susceptibility testing, 24th informational supplement. Approved standard CLSI M100-S24; Clinical and Laboratory Standards Institute, Wayne, Pa.). The following microorganisms were used to determine antibiotic activity of the peptides: Escherichia coli ATCC 25922, Klebsiella pneumoniae SSI #3010^a), Acinetobacter baumannii DSM 30008, Pseudomonas aeruginosa ATCC 27853 and the clinical isolates Escherichia coli 926415^b), Klebsiella pneumoniae 968733^b), Acinetobacter baumannii 872842^b), Enterobacter cloacae 848840^b) and Escherichia coli MCR-1 Af45^c). Before preparation of inocula, Escherichia coli MCR-1 Af45 was subcultured on Mueller-Hinton II (MH-cation adjusted) agar containing 2 μg/mL colistin. ^a) Obtained from Statens Serum Institut (SSI), Copenhagen, Denmark^b) Obtained from International Health Management Associates, Inc. (IHMA Europe Sàrl), Epalinges, Switzerland^c) Obtained from Prof. Patrice Nordmann, University of Fribourg, Fribourg, Switzerland
(§2) Inocula of the microorganisms were diluted into Mueller-Hinton II (MH-cation adjusted) broth and compared with a 0.5 McFarland standard to give appr. 10^6 colony forming units (CFU)/mL. Aliquots (90 μL) of inoculum were added to 10 μL of MH-II broth+P-80 (Polysorbate 80, 0.002% final concentration, v/v) containing the peptide in serial two-fold dilutions. Antimicrobial activities of the peptides were expressed as the minimal inhibitory concentration (MIC) in μg/mL at which no visible growth was observed after 18-20 hours of incubation at 35° C.

[2] = test system: Klebsiella pneumoniae 968733; settings: 968733
Method: as §1, §2

[3] = test system: Acinetobacter baumannii 872842; settings: 872842
Method: as §1, §2

[4] = test system: Pseudomonas aeruginosa ATCC 27853; settings: ATCC 27853
Method: as §1, §2

[5] = test system: Acinetobacter baumannii DSM 30008; settings: DSM 30008
Method: as §1, §2

[6] = test system: Klebsiella pneumoniae SSI #3010; settings: SSI #3010
Method: as §1, §2

[7] = test system: Escherichia coli 926415; settings: 926415
Method: as §1, §2

[8] = test system: Enterobacter cloacae 848840; settings: 848840
Method: as §1, §2

[9] = test system: human red blood cells (hRBC); test: Hemolysis; settings: red cells of human, 1 h, 200
How it was run: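 Percent hemolysis relative to 2% Triton X-100 (100%) and PBS/10% water (0%), from blank-corrected OD540 of diluted supernatants. Peptides tested at 200 μg/mL against 20% (v/v) washed human erythrocytes, 1 h, 37° C, shaking at 300 rpm.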

MIC [1]	MIC [2]	MIC [3]	MIC [4]	MIC [5]	MIC [6]	MIC [7]	MIC [8]	Escherichia coli ATCC 25922 MIC [1]	Pseudomonas aeruginosa ATCC 27853 MIC [4]	Acinetobacter baumannii DSM 30008 MIC [5]	Klebsiella pneumoniae SSI #3010 MIC [6]	Compound	Hemolysis at 200 μg/mL [9]
0.0625 µg/mL (≈ 0.0265 µM)	0.5 µg/mL (≈ 0.212 µM)	0.125 µg/mL (≈ 0.0531 µM)	0.25 µg/mL (≈ 0.106 µM)	0.125 µg/mL (≈ 0.0531 µM)	0.125 µg/mL (≈ 0.0531 µM)	0.125 µg/mL (≈ 0.0531 µM)	0.25 µg/mL (≈ 0.106 µM)	–	–	–	–	CC(C)C[C@@H]1NC(=O)[C@@H](CC(C)C)NC(=O)[C@H](CCN)NC(=O)[C@@H](NC(=O)[C@H](CN)NC(=O)[C@@H](NC(=O)[C@H](CCN)NC(=O)CC[C@@H]2NC(=O)[C@@H](CCN)NC(=O)CNC(=O)[C@H](CCN)NC(=O)[C@H](Cc3ccc(O)cc3)NC(=O)[C@@H](NC(=O)[C@@H](O)C(C)C)CSSC[C@@H](C(=O)N[C@H](C(N)=O)[C@@H](C)O)NC(=O)[C@H](C(C)(C)C)NC(=O)[C@H](CO)NC(=O)[C@H](Cc3c[nH]c4ccccc34)NC2=O)[C@@H](C)O)CCNC(=O)[C@H]([C@@H](C)O)NC(=O)[C@H](CCN)NC(=O)[C@H](CCN)NC1=O [Ex. 168] (I: H-[Hiv]CY[Dab]G[dDab]EWS[Tle]CT-NH2 / II: [Dab]T[Dap][Dab][Dab][dL]L[Dab][Dab]T; disulfide I:2-I:11; amide I:7-II:N; lactam II:4-II:C)	<1%
–	0.25 µg/mL (≈ 0.101 µM)	0.125 µg/mL (≈ 0.0503 µM)	–	–	–	0.125 µg/mL (≈ 0.0503 µM)	0.25 µg/mL (≈ 0.101 µM)	0.0625 µg/mL	0.0625 µg/mL	0.03125 µg/mL	0.0625 µg/mL	CC(C)C[C@@H]1NC(=O)[C@@H](CC(C)C)NC(=O)[C@H](CCN)NC(=O)[C@@H](NC(=O)[C@H](CN)NC(=O)[C@@H](NC(=O)[C@H](CCN)NC(=O)CC[C@@H]2NC(=O)[C@H](CO)NC(=O)[C@H](Cc3ccc(O)cc3)NC(=O)[C@@H](NC(=O)[C@@H](O)C(C)C)CSSC[C@@H](C(=O)N[C@@H](CO)C(=O)N[C@@H](CC(=O)O)C(N)=O)NC(=O)[C@H](C(C)(C)C)NC(=O)[C@H](CO)NC(=O)[C@H](Cc3c[nH]c4ccccc34)NC(=O)[C@H](CCN)NC(=O)[C@@H](CCN)NC2=O)[C@@H](C)O)CCNC(=O)[C@H]([C@@H](C)O)NC(=O)[C@H](CCN)NC(=O)[C@H](CCN)NC1=O [Ex. 372] (I: H-[Hiv]CYSE[dDab][Dab]WS[Tle]CSD-NH2 / II: [Dab]T[Dap][Dab][Dab][dL]L[Dab][Dab]T; disulfide I:2-I:11; amide I:5-II:N; lactam II:4-II:C)	<1%
0.125 µg/mL (≈ 0.0518 µM)	4 µg/mL (≈ 1.66 µM)	2 µg/mL (≈ 0.829 µM)	0.25 µg/mL (≈ 0.104 µM)	0.25 µg/mL (≈ 0.104 µM)	0.25 µg/mL (≈ 0.104 µM)	2 µg/mL (≈ 0.829 µM)	2 µg/mL (≈ 0.829 µM)	–	–	–	–	CC(=O)N[C@@H](Cc1ccc(O)cc1)C(=O)N[C@H]1CSSC[C@@H](C(=O)NC(CO)CO)NC(=O)[C@H](Cc2c[nH]c3ccccc23)NC(=O)[C@H](CO)NC(=O)[C@H](C(C)C)NC(=O)[C@H](CCO)NC(=O)[C@@H](CCN)NC(=O)[C@H](CCC(=O)N[C@@H](CCN)C(=O)N[C@H](C(=O)N[C@@H](CCN)C(=O)N[C@H]2CCNC(=O)[C@H]([C@@H](C)O)NC(=O)[C@H](CCN)NC(=O)[C@H](CCN)NC(=O)[C@H](CC(C)C)NC(=O)[C@@H](CC(C)C)NC(=O)[C@H](CCN)NC2=O)[C@@H](C)O)NC(=O)[C@H](CCN)NC(=O)[C@H](C(C)C)NC1=O [Ex. 98] (I: Ac-YCV[Dab]E[dDab][hSer]VSWC-{NHCH(CH2OH)2} / II: [Dab]T[Dab][Dab][Dab][dL]L[Dab][Dab]T; disulfide I:2-I:11; amide I:5-II:N; lactam II:4-II:C)	<1%
–	2 µg/mL (≈ 0.829 µM)	0.5 µg/mL (≈ 0.207 µM)	–	–	–	0.5 µg/mL (≈ 0.207 µM)	8 µg/mL (≈ 3.32 µM)	0.125 µg/mL	0.25 µg/mL	0.25 µg/mL	0.25 µg/mL	CC(=O)N[C@H](C(=O)N[C@H]1CSSC[C@@H](C(=O)N[C@@H](CO)C(N)=O)NC(=O)[C@H](C(C)C)NC(=O)[C@H](CO)NC(=O)[C@H](Cc2c[nH]c3ccccc23)NC(=O)[C@@H](CCC(=O)N[C@@H](CCN)C(=O)N[C@H](C(=O)N[C@@H](CN)C(=O)N[C@H]2CCNC(=O)[C@H]([C@@H](C)O)NC(=O)[C@H](CCN)NC(=O)[C@H](CCN)NC(=O)[C@H](CC(C)C)NC(=O)[C@@H](CC(C)C)NC(=O)[C@H](CCN)NC2=O)[C@@H](C)O)NC(=O)[C@@H](CCN)NC(=O)[C@H](CCCN)NC(=O)[C@H](CO)NC(=O)[C@H](Cc2ccc(O)cc2)NC1=O)C(C)C [Ex. 366] (I: Ac-VCYS[Orn][dDab][dE]WSVCS-NH2 / II: [Dab]T[Dap][Dab][Dab][dL]L[Dab][Dab]T; disulfide I:2-I:11; amide I:7-II:N; lactam II:4-II:C)	4%
